Test results from PMC9963398, “Discovery of New Quinolone-Based Diarylamides as Potent B-RAF^V600E/C-RAF Kinase Inhibitors Endowed with Promising In Vitro Anticancer Activity” (International Journal of Molecular Sciences, 2023).

How the values were obtained:
K-562 = assay: NCI-60 five-dose SRB assay; format: cell-based; details: Homo sapiens, K562; K-562, Leukemia, five-dose test
How it was run: (§1)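 Standard NCI procedure: compounds applied to the 60 human cancer cell lines, followed by SRB staining to quantify cell mass.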

SN12C = assay: NCI-60 five-dose SRB assay; format: cell-based; details: Homo sapiens, Renal cancer, five-dose test
How it was run: as §1

HOP-62 = assay: NCI-60 five-dose SRB assay; format: cell-based; details: Homo sapiens; HOP-62, NSCL cancer, five-dose test
How it was run: as §1

OVCAR-4 = assay: NCI-60 five-dose SRB assay; format: cell-based; details: Homo sapiens; OVCAR-4, Ovarian cancer, five-dose test
How it was run: as §1

ACHN = assay: NCI-60 five-dose SRB assay; format: cell-based; details: Homo sapiens, Renal cancer, five-dose test
How it was run: as §1

RPMI-8226 = assay: NCI-60 five-dose SRB assay; format: cell-based; details: Homo sapiens; RPMI-8226, Leukemia, five-dose test
How it was run: as §1

T-47D = assay: NCI-60 five-dose SRB assay; format: cell-based; details: Homo sapiens, T47D, Breast cancer, five-dose test
How it was run: as §1

M14 = assay: NCI-60 five-dose SRB assay; format: cell-based; details: Homo sapiens; M14, Melanoma, five-dose test
How it was run: as §1

U251 = assay: NCI-60 five-dose SRB assay; format: cell-based; details: Homo sapiens, U-251; U251, CNS cancer, five-dose test
How it was run: as §1

SW-620 = assay: NCI-60 five-dose SRB assay; format: cell-based; details: Homo sapiens; SW-620, Colon cancer, five-dose test
How it was run: as §1

SF-268 = assay: NCI-60 five-dose SRB assay; format: cell-based; details: Homo sapiens; SF-268, CNS cancer, five-dose test
How it was run: as §1

NCI/ADR-RES = assay: NCI-60 five-dose SRB assay; format: cell-based; details: Homo sapiens, Ovarian cancer, five-dose test
How it was run: as §1

UACC-62 = assay: NCI-60 five-dose SRB assay; format: cell-based; details: Homo sapiens; UACC-62, Melanoma, five-dose test
How it was run: as §1

HL-60(TB) = assay: NCI-60 five-dose SRB assay; format: cell-based; details: Homo sapiens, Leukemia, five-dose test
How it was run: as §1

SK-OV-3 = assay: NCI-60 five-dose SRB assay; format: cell-based; details: Homo sapiens; SK-OV-3, Ovarian cancer, five-dose test
How it was run: as §1

KM12 = assay: NCI-60 five-dose SRB assay; format: cell-based; details: Homo sapiens; KM12, Colon cancer, five-dose test
How it was run: as §1

UACC-257 = assay: NCI-60 five-dose SRB assay; format: cell-based; details: Homo sapiens; UACC-257, Melanoma, five-dose test
How it was run: as §1

A549/ATCC = assay: NCI-60 five-dose SRB assay; format: cell-based; details: Homo sapiens, NSCL cancer, five-dose test
How it was run: as §1

NCI-H226 = assay: NCI-60 five-dose SRB assay; format: cell-based; details: Homo sapiens; NCI-H226, NSCL cancer, five-dose test
How it was run: as §1

SR = assay: NCI-60 five-dose SRB assay; format: cell-based; details: Homo sapiens, Leukemia, five-dose test
How it was run: as §1

TK-10 = assay: NCI-60 five-dose SRB assay; format: cell-based; details: Homo sapiens; TK-10, Renal cancer, five-dose test
How it was run: as §1

[1] = test system: NCI-60 human tumor cell lines; assay: NCI-60 five-dose testing, ranges over panel or subpanel; format: cell-based; details: for GI50: Homo sapiens
Description: The anticancer screening of target compounds over a full panel of 60 human cancer cell lines was carried out using Sulforhodamine B (SRB) assay at the National Cancer Institute (NCI), Bethesda, Maryland, USA, employing the standard protocol.

[2] = test system: NCI-60 human cancer cell lines; assay: NCI-60 single dose (10 µM) testing; format: cell-based; details: single dose 10 µM
Description: Encouraged by the promising results in the cell-free assay, the antiproliferative activity of all final compounds was evaluated by the National Cancer Institute (NCI) in a single dose of 10 µM over a library of 60 human cancer cell lines representing nine cancer types; leukemia, non-small cell lung (NSCL), colon, central nervous system (CNS), melanoma, ovarian, renal, prostate, and breast cancer.

B-RAF^V600K = biological target: T1, B-RAF^V600K (Homo sapiens, UniProt P15056, V600K); assay: HotSpot kinase assay (RBC), B-RAF^V600K; format: biochemical; details: 10 µM ATP
T1 construct: purchased Reaction Biology Corporation (RBC), Kinase HotSpot service
T1 sequence (P15056 whole entry V600K): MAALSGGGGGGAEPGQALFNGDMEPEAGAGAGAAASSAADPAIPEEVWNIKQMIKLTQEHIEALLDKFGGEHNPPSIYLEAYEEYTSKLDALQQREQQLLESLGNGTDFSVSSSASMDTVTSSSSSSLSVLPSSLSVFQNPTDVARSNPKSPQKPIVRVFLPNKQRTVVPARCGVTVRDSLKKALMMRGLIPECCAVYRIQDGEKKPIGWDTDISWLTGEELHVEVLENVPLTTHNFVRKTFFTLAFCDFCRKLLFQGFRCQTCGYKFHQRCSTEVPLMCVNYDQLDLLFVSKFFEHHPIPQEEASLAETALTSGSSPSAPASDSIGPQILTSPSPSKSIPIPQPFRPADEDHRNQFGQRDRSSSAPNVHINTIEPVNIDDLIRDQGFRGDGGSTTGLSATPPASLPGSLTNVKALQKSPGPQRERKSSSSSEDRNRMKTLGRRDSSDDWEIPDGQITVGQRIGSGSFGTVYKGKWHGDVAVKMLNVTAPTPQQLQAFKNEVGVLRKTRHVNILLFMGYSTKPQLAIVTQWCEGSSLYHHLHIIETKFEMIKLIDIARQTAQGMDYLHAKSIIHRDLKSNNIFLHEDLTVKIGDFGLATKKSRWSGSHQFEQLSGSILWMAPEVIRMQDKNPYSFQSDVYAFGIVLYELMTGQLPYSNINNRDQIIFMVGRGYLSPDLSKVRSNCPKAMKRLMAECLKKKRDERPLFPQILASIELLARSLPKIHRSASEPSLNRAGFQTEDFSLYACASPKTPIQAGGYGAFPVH
Description: To gain insight into the inhibitory mode of this new array of quinolines, 18a was tested at 1 µM concentration of ATP to compare it with its IC50 at 10 µM (Table 2).

[3] = melanoma cell lines, range over lines
[4] = MALME-3M, MDA-MB-435, SK-MEL-2, and UACC-62
[5] = melanoma LOX IMVI, SK-MEL-28, and SK-MEL-5
[6] = NSCL cell lines, range over lines
[7] = colon cancer cell lines, range over lines

Row | SMILES | GI50 (K-562) [µM] | GI50 (SN12C) [µM] | GI50 (HOP-62) [µM] | GI50 (OVCAR-4) [µM] | GI50 (ACHN) [µM] | GI50 (RPMI-8226) [µM] | GI50 (T-47D) [µM] | GI50 (M14) [µM] | GI50 (U251) [µM] | GI50 (SW-620) [µM] | GI50 (SF-268) [µM] | GI50 (UACC-62) [µM] | GI50 (HL-60(TB)) [µM] | GI50 (SK-OV-3) [µM] | GI50 (KM12) [µM] | GI50 (UACC-257) [µM] | GI50 (A549/ATCC) [µM] | GI50 (NCI-H226) [µM] | GI50 (SR) [µM] | GI50 (TK-10) [µM] | other results
1 | COc1cccc2nc(Nc3cccc(NC(=O)c4ccc(CN5CCN(C)CC5)c(C(F)(F)F)c4)c3)ccc12 [Compound 14a, 4-((4-methylpiperazin-1-yl)methyl)-N-(3-((5-methoxyquinolin-2-yl)amino)phenyl)-3-(trifluoromethyl)benzamide] | 2.7 | 1.71 | 1.56 | 2.21 | 2.05 | 2.78 | 2.28 | 1.76 | 1.92 | 1.73 | 1.69 | 1.75 | 1.22 | 9.22 | 2.13 | 1.98 | 2.44 | 4.63 | 1.85 | 2.15 | GI50 (NCI/ADR-RES): 2.28 µM
2 | COc1cccc2nc(Nc3cccc(NC(=O)c4ccc(CN5CCCN(C)CC5)c(C(F)(F)F)c4)c3)ccc12 [Compound 14b, N-(3-((5-methoxyquinolin-2-yl)amino)phenyl)-4-((4-methyl-1,4-diazepan-1-yl)methyl)-3-(trifluoromethyl)benzamide] | 1.23 | 1.63 | 1.76 | 2.67 | 1.87 | 1.93 | 5.43 | 1.81 | 1.76 | 1.75 | 1.77 | 1.81 | 1.65 | 4.33 | 2.49 | 1.86 | 1.9 | 1.94 | – | 4.91 | GI50 (NCI/ADR-RES): 1.72 µM
3 | CCN1CCN(Cc2ccc(C(=O)Nc3cccc(Nc4ccc5c(OC)cccc5n4)c3)cc2C(F)(F)F)CC1 [Compound 14c, 4-((4-ethylpiperazin-1-yl)methyl)-N-(3-((5-methoxyquinolin-2-yl)amino)phenyl)-3-(trifluoromethyl)benzamide] | 2.11 | 3.62 | 3.67 | 2.89 | 1.85 | 2.24 | 2.11 | 1.47 | 1.69 | 1.45 | 2.17 | 1.53 | 1.57 | 12.6 | 2.2 | 1.51 | 2.5 | 5.53 | 1.87 | 8.67 | GI50 (NCI/ADR-RES): 2.28 µM
4 | COc1cccc2nc(Nc3ccc(F)c(NC(=O)c4ccc(CN5CCN(C)CC5)c(C(F)(F)F)c4)c3)ccc12 [Compound 15a, N-(2-fluoro-5-((5-methoxyquinolin-2-yl)amino)phenyl)-4-((4-methylpiperazin-1-yl)methyl)-3-(trifluoromethyl)benzamide] | 3.59 | 13.4 | 14.5 | 13.9 | 16.5 | 9.3 | 14.8 | 13.1 | 13.4 | 16.9 | 11.1 | 16.2 | 6.52 | 15.7 | 15.4 | 16.3 | 12.2 | 11.1 | 9.83 | 16.4 | GI50 ([1]; all cancer cell lines, range over lines): 3.61 to 18.8 µM; GI50 [1, 3]: 11.7 to 16.3 µM
5 | COc1ccc2nc(Nc3cccc(NC(=O)c4ccc(CN5CCN(C)CC5)c(C(F)(F)F)c4)c3)ccc2c1 [Compound 16a, N-(3-((6-methoxyquinolin-2-yl)amino)phenyl)-4-((4-methylpiperazin-1-yl)methyl)-3-(trifluoromethyl)benzamide] | 0.882 | 5.49 | 6.36 | 4.32 | 4.88 | 3.14 | 4.12 | 3.63 | 3.77 | 5.89 | 5.2 | 6.45 | 5.46 | 5.99 | 4.05 | 4.35 | 4.36 | 4.6 | 1.31 | 6.52 | –
6 | CN1CCN(Cc2ccc(C(=O)Nc3cccc(Nc4ccc5c(O)cccc5n4)c3)cc2C(F)(F)F)CC1 [Compound 17a, N-(3-((5-hydroxyquinolin-2-yl)amino)phenyl)-4-((4-methylpiperazin-1-yl)methyl)-3-(trifluoromethyl)benzamide] | 2.42 | 2.34 | 3 | 7.39 | 2.07 | 2.92 | 10.7 | 2.21 | 2.38 | 2.24 | 3.81 | 1.73 | 2.47 | 14.4 | 2.3 | 1.92 | 4.5 | 19.2 | 4.39 | 3.36 | GI50 ([1]; MOLT-4, all leukemia cell lines, except MOLT-4): > 2 µM; growth percent [2, 4]: less than -90; growth percent [2, 5]: −100; GI50 (NCI/ADR-RES): 3.45 µM
7 | CN1CCN(Cc2ccc(C(=O)Nc3cccc(Nc4ccc5cc(O)ccc5n4)c3)cc2C(F)(F)F)CC1 [Compound 18a, N-(3-((6-hydroxyquinolin-2-yl)amino)phenyl)-4-((4-methylpiperazin-1-yl)methyl)-3-(trifluoromethyl)benzamide] | 1.88 | 14.1 | 12.1 | 11.2 | 7.59 | 2.65 | 14.6 | 9.06 | 2.17 | 2.3 | 10.4 | 15.4 | 2.58 | 16.5 | 3.16 | 7.35 | 8.7 | 16 | 2.68 | 21.4 | IC50 (B-RAF^V600K): < 0.00508 µM; GI50 ([1]; LOX IMVI, MALME-3M, and SK-MEL-28): 1.59 to 1.79 µM; GI50 [1, 6]: 3.39 to 17.8 µM; GI50 [1, 7]: 2.09 to 18.5 µM; GI50 increase relative to 17a ([1]; other melanoma cell lines): 1.37–9.11 fold; growth percent [2, 4]: less than -90; growth percent [2, 5]: −100
8 | CN1CCCN(Cc2ccc(C(=O)Nc3cccc(Nc4ccc5cc(O)ccc5n4)c3)cc2C(F)(F)F)CC1 [Compound 18b, N-(3-((6-hydroxyquinolin-2-yl)amino)phenyl)-4-((4-methyl-1,4-diazepan-1-yl)methyl)-3-(trifluoromethyl)benzamide] | 1.18 | 17.3 | 17.8 | 15 | 19.7 | 11.4 | 15.8 | 12.7 | 14.8 | 14.5 | 17.3 | 15.9 | 11.9 | 17.6 | 14.1 | 14.7 | 16.2 | 13.8 | 1.89 | 18.5 | GI50 [1, 6]: 3.39 to 17.8 µM; GI50 [1, 7]: 2.09 to 18.5 µM; GI50 [1, 3]: 10.4 to 17.2 µM; effect on cell growth ([2]; LOX IMVI): lethal effect; growth percent ([2]; melanoma SK-MEL-29, SK-MEL-5, and UACC-62): under −90%
